Measurements as given in the NIST ThermoML archive (doi:10.1021/je2013704).

Test: mn = molality of the nth substance listed, in mol/kg
Details: Liquid, Vibrating tube method

[Cl][Al]([Cl])[Cl] [aluminum chloride] + O
mass density [kg/m3]
Details	900 kPa	9900 kPa	19900 kPa	29900 kPa	39900 kPa	49900 kPa	59900 kPa	68400 kPa
298.12 K, m1 = 1	1105.53	1108.79	1112.3	1115.82	1119.28	1122.69	1125.95	1128.83
298.12 K, m1 = 2	1212.19	1214.96	1217.92	1220.94	1223.85	1226.72	1229.57	1232.02
323.07 K, m1 = 1	1096.76	1099.96	1103.44	1106.84	1110.31	1113.67	1116.93	1119.6
323.07 K, m1 = 2	1203.26	1206.02	1209.01	1211.9	1214.88	1217.8	1220.6	1222.88
348.04 K, m1 = 1	1085.66	1088.98	1092.48	1096.02	1099.44	1102.74	1106.07	1108.86
348.04 K, m1 = 2	1192.82	1196	1199.11	1202.1	1205.07	1207.92	1210.85	1213.26
372.99 K, m1 = 1	1072.64	1075.97	1079.63	1083.19	1086.72	1090.2	1093.58	1096.34
372.99 K, m1 = 2	1181.64	1184.73	1187.9	1191.11	1194.19	1197.22	1200.14	1202.66

[Ca+2].[Cl-].[Cl-] [calcium chloride] + O
mass density [kg/m3]
Details	283.15 K	298.12 K	323.07 K	348.04 K	372.99 K	397.97 K	422.94 K	447.94 K	472.96 K
1050 kPa, m1 = 1	1087.02	1082.37	1072.02	1058.99	1043.73	1026.22	1006.8	985.31	–
1050 kPa, m1 = 3	–	1225.07	1212.47	1198.77	1184.12	1167.99	1150.79	1132.22	–
1050 kPa, m1 = 6	–	1388	1372.06	1356.18	1340.35	1324.03	1307.39	1290.23	–
10020 kPa, m1 = 1	1090.65	1085.93	1075.48	1062.51	1047.42	1030.11	1011.09	989.96	966.77
10020 kPa, m1 = 3	–	1228.17	1215.47	1201.83	1187.2	1171.26	1154.33	1135.97	1116.32
10020 kPa, m1 = 6	–	1390.67	1374.67	1358.9	1343.09	1326.81	1310.4	1293.23	1275.65
19970 kPa, m1 = 1	1094.63	1089.7	1079.27	1066.31	1051.39	1034.38	1015.62	995.04	972.43
19970 kPa, m1 = 3	–	1231.3	1218.73	1205.15	1190.58	1174.82	1158.03	1139.99	1120.67
19970 kPa, m1 = 6	–	1393.43	1377.58	1361.82	1346.07	1329.91	1313.54	1296.61	1279.19
29900 kPa, m1 = 1	1098.56	1093.48	1082.99	1070.05	1055.27	1038.38	1020	999.9	977.79
29900 kPa, m1 = 3	–	1234.6	1221.98	1208.41	1193.94	1178.23	1161.68	1143.88	1124.82
29900 kPa, m1 = 6	–	1396.28	1380.48	1364.67	1349.03	1332.86	1316.63	1299.83	1282.53
39830 kPa, m1 = 1	1102.39	1097.27	1086.62	1073.75	1059.05	1042.42	1024.3	1004.57	983.04
39830 kPa, m1 = 3	–	1237.81	1225.08	1211.58	1197.14	1181.65	1165.21	1147.62	1129.01
39830 kPa, m1 = 6	–	1399.14	1383.27	1367.55	1351.92	1335.87	1319.7	1303.02	1285.96
49760 kPa, m1 = 1	1106.11	1100.95	1090.1	1077.29	1062.77	1046.36	1028.53	1009.07	988.08
49760 kPa, m1 = 3	–	1240.96	1228.11	1214.64	1200.38	1184.96	1168.72	1151.3	1132.99
49760 kPa, m1 = 6	–	1401.93	1385.94	1370.29	1354.76	1338.78	1322.71	1306.09	1289.19
59680 kPa, m1 = 1	1109.84	1104.52	1093.62	1080.87	1066.34	1050.19	1032.62	1013.53	992.91
59680 kPa, m1 = 3	–	1244	1231.21	1217.8	1203.46	1188.2	1172.12	1154.99	1136.86
59680 kPa, m1 = 6	–	1404.61	1388.68	1373.09	1357.57	1341.67	1325.64	1309.22	1292.45
68120 kPa, m1 = 1	1113.04	1107.46	1096.56	1083.78	1069.39	1053.29	1036	1017.15	996.86
68120 kPa, m1 = 3	–	1246.57	1233.72	1220.39	1206.1	1190.88	1174.94	1157.94	1140.04
68120 kPa, m1 = 6	–	1406.89	1390.9	1375.4	1359.88	1344	1328.12	1311.73	1295.04
